Test [1] deals with T1, D(3) dopamine receptor (Homo sapiens, UniProt P35462).
Test [2] deals with T2, 5-hydroxytryptamine receptor 2C (Homo sapiens, UniProt P28335).
T2 sequence (P28335 whole entry): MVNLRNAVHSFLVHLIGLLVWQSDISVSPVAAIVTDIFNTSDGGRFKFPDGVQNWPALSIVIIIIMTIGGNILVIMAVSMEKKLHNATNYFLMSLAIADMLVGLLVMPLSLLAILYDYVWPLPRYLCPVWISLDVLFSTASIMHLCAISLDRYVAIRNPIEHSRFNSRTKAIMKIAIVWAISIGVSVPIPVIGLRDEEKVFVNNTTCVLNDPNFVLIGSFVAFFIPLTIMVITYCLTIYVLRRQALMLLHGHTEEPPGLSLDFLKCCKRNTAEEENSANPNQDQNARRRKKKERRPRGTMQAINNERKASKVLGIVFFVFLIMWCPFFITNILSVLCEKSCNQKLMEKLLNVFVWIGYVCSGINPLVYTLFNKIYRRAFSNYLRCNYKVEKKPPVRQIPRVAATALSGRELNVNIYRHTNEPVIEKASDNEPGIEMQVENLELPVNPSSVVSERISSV

The target in test [3] is T3, D(2) dopamine receptor (Homo sapiens, UniProt P14416).
T3 sequence (P14416 whole entry): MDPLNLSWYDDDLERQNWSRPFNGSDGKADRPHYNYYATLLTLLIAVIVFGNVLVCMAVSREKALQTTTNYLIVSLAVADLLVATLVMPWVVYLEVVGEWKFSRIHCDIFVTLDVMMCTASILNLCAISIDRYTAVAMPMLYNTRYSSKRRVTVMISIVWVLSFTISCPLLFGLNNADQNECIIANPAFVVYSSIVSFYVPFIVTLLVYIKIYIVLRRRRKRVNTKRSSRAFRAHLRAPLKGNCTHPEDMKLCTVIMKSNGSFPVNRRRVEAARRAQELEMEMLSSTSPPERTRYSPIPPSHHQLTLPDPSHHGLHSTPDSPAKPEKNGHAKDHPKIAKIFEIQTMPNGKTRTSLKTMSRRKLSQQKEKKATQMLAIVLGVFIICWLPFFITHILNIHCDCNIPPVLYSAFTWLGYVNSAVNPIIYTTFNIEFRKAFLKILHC
Test [4] addresses T4, 5-hydroxytryptamine receptor 2A (Homo sapiens, UniProt P28223).
Test [5] deals with T5, D(4) dopamine receptor (Homo sapiens, UniProt P21917).
T5 sequence (P21917 whole entry): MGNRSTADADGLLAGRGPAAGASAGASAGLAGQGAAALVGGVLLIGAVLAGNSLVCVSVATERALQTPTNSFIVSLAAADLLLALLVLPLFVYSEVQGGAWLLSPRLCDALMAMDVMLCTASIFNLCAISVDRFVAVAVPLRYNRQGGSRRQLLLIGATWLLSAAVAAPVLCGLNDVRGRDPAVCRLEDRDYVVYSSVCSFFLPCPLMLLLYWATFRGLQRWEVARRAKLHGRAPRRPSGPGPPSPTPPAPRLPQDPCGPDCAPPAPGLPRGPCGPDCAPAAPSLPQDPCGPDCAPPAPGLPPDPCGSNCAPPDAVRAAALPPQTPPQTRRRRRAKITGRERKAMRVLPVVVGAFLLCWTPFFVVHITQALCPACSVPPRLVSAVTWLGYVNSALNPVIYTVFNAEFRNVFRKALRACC

Test [6] deals with T6, 5-hydroxytryptamine receptor 7 (Homo sapiens, UniProt P34969).
T6 sequence (P34969 whole entry): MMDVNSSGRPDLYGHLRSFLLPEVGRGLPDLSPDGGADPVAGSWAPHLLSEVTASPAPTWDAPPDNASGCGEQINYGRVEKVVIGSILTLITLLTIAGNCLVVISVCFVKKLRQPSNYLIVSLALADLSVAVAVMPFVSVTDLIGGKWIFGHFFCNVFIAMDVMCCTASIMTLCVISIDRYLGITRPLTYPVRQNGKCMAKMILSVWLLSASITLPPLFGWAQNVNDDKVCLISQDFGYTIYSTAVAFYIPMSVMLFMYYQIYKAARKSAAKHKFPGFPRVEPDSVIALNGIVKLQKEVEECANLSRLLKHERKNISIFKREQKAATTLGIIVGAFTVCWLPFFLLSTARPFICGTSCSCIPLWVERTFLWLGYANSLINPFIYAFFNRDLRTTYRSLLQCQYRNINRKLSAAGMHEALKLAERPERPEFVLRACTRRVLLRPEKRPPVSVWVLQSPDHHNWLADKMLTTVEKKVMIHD
Description: Displacement of [3H]-LSD from human 5HT7 receptor by liquid scintillation counting
Test [7] addresses Sodium-dependent serotonin transporter (Homo sapiens, UniProt P31645).
Description: Displacement of [3H]-citalopram from human SERT by liquid scintillation counting
Test [8] addresses T7, 5-hydroxytryptamine receptor 1A (Homo sapiens, UniProt P08908).
T7 sequence (P08908 whole entry): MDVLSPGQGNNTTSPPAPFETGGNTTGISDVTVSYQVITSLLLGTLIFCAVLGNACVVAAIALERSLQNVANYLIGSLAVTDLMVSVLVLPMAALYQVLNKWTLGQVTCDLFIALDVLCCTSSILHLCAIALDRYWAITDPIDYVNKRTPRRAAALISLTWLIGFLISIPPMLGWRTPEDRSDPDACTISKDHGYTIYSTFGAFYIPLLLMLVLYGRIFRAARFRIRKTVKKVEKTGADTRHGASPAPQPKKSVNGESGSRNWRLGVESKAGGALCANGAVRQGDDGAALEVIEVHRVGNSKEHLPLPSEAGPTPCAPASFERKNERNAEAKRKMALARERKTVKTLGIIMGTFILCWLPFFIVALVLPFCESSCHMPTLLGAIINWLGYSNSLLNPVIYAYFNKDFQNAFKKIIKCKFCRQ

The target of test [9] is T8, 5-hydroxytryptamine receptor 2C (Homo sapiens) (UniProt P28335).
T8 sequence (whole entry): T2 sequence (P28335 whole entry)
The experiment in a line: Displacement of [3H]-mesulergine from human 5HT2C receptor at 10 uM by liquid scintillation counting. On the technique in general: Loss of bound radioactivity is the signal in a displacement assay; it reports binding, not function.

Test [10] deals with T3, D(2) dopamine receptor. The experiment in a line: Displacement of [3H]-N-methylspiperone from human dopamine D2 receptor at 10 uM by liquid scintillation counting.
The target in test [11] is T9, 5-hydroxytryptamine receptor 1A (Homo sapiens) (UniProt P08908).
T9 sequence (whole entry): T7 sequence (P08908 whole entry)
The experiment in a line: Displacement of [3H]-8-OH-DPAT from human 5HT1A receptor at 10 uM by liquid scintillation counting.

For test [12], the target named is T1, D(3) dopamine receptor. The experiment in a line: Displacement of [3H]-N-methylspiperone from human dopamine D3 receptor at 10 uM by liquid scintillation counting.
Test [13] has as its target T6, 5-hydroxytryptamine receptor 7. The experiment in a line: Displacement of [3H]-LSD from human 5HT7 receptor at 10 uM by liquid scintillation counting.
In test [14] the target is T4, 5-hydroxytryptamine receptor 2A. The experiment in a line: Displacement of [3H]-mesulergine from human 5HT2A receptor at 10 uM by liquid scintillation counting.

Where “and” joins values, the source holds several entries; their conditions need not be identical. Equal values may be shown once.

T4 sequence (P28223 whole entry): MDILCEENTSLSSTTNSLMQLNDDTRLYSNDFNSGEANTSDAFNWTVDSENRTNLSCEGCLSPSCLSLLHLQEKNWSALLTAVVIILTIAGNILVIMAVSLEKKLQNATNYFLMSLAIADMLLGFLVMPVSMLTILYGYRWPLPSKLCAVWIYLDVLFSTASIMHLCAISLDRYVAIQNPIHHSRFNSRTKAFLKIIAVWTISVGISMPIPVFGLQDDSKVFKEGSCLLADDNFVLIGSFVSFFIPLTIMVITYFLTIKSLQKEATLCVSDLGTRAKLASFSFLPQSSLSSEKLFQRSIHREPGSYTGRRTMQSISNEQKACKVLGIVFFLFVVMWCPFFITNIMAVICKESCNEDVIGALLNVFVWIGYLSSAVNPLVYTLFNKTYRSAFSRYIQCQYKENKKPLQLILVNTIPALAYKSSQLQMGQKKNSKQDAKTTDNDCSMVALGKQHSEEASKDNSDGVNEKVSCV
Sodium-dependent serotonin transporter, sequence (P31645 whole entry): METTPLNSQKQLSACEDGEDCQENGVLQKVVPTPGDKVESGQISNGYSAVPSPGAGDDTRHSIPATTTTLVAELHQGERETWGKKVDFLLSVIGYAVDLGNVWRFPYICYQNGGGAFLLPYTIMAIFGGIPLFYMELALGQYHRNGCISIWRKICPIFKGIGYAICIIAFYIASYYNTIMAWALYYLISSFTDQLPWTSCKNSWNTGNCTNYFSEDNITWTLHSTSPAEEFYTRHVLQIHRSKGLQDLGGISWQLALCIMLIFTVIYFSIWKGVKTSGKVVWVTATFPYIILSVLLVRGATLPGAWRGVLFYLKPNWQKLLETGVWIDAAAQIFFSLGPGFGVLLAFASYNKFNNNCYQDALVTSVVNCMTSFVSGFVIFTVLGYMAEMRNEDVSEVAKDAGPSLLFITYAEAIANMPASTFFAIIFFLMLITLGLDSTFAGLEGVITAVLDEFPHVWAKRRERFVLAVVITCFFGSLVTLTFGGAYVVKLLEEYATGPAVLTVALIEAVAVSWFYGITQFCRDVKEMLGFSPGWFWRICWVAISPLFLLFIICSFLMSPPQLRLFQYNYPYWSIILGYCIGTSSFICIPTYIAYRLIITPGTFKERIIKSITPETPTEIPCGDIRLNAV
T1 sequence (P35462 whole entry): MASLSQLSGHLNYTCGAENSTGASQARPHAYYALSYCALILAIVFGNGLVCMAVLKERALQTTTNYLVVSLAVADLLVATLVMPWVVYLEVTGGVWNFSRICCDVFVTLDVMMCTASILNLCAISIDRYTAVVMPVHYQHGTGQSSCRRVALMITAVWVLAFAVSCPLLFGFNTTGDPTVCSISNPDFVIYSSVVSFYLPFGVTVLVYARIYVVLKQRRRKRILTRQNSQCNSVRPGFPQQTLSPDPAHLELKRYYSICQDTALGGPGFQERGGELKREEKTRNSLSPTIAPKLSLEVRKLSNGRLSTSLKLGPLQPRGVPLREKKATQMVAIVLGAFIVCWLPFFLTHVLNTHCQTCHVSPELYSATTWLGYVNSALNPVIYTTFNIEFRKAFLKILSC

The Ki is the equilibrium dissociation constant of an inhibitor or competing ligand from its target. For the compound `Fc1ccc(CCCCN2CCN(c3ccc(-c4ccccc4)cn3)CC2)cc1`, the Ki in test [1] was 2090 nM; in test [2], above 10000 nM; in test [3], above 10000 nM; in test [4] it was 147 nM; in [5], 2260 nM; in [6] it was above 10000 nM. The figures for the Ki in test [7] and in [8] were 2670 nM and 1460 nM, respectively.
In the case of `Fc1ccc2c(c1)CC(CCN1CCCN(c3ccccn3)CC1)C2` (stereo not drawn), the inhibition constant (Ki) in test [1] amounted to 774 nM; in test [2], 963 nM; in test [3] it was 599 nM; in test [4], 43 nM; in test [5] it was 104 nM; in test [6], 267 nM. Besides, the inhibition constant (Ki) in [7] was 64 nM; in [8] it was 615 nM and 589 nM.
Usually inhibition stands for the share of the control response that was lost under treatment. `O=C1c2ccc(F)cc2CC1CCN1CCCN(c2ccccn2)CC1` (stereo not drawn): the inhibitory constant (Ki) in test [1] is 2290 nM; in test [3] it was 649 nM; in test [4], 59 nM; in [5], 191 nM; in test [6], 58 nM; in [7], 949 nM and 933 nM. The same compound came in with an inhibition constant Ki in [8] of 886 nM. The inhibition in [9] was 50%.
On to `Fc1ccc(CCCCN2C3CCC2CN(c2ccc(Cl)cn2)C3)cc1`, for which the inhibition constant (Ki) in [1] is 840 nM; in test [4], 94 nM; in test [5], 44 nM; in [6], 339 nM; in [7], 158 nM; in test [8], 94.2 nM. The inhibition in [9] and in test [10] was 50% each time.
Consider `O=C(CCCN1C2CCC1CN(c1ccc(Cl)cn1)C2)c1ccc(F)cc1`, for which the inhibitory constant (Ki) in test [1] came to 1010 nM; in test [2], 1360 nM; in [3], 1250 nM; in test [4], 51 nM; in [5], 119 nM; in [6], 335 nM. Also, the Ki is 241 nM in [7] and 78 nM in test [8].
With `O=C(CCCN1CCN(c2cccnc2)CC1)c1ccc(F)cc1`, the Ki in test [1] is 140 nM; in test [3] it was 1170 nM; in test [4], 305 nM; in test [5] it was 30 nM; in test [6], 147 nM and 135 nM; in test [8], 97 nM. In addition, the inhibition in test [9] was determined as 50%.
For the compound `O=C1c2ccc(F)cc2CC1CCN1CCCN(c2ccc(Cl)cc2)CC1` (stereo not drawn), the Ki in [6] came out at 72 nM; in test [7], 24 nM.
Regarding `Cc1ccc(N2CCN(CCCCc3ccc(F)cc3)CC2)nc1`, the inhibitory constant (Ki) in test [2] worked out at 1610 nM; in [6], 60 nM; in [7] it was 2990 nM; in test [8], 92 nM.
As to `Fc1ccc(CCCCN2CCN(c3cccnc3)CC2)cc1`, the inhibition in test [9] and in test [10] was 50% throughout. Also, the inhibitory constant (Ki) in [4] was 338 nM; in test [5], 16 nM; in test [6] it was 267 nM; in test [8], 18 nM.
Take `Fc1ccc(CCCCN2CCN(c3ccncc3)CC2)cc1`: the inhibition in test [9], in [11], in test [10], in test [12], in [13] and in test [14] was 50% in each case. The Ki in [5] is 2050 nM.
`O=C(CCCN1CCCN(c2ccccn2)CC1)c1ccc(F)cc1`: the inhibition constant (Ki) in test [1] is 3450 nM; in test [2], 337 nM; in test [3], 181 nM; in test [4], 1.2 nM; in [5], 257 nM; in test [6] it was 569 nM and 1550 nM. In addition, the inhibition constant (Ki) in [8] was 1960 nM and 1910 nM.
`O=C1c2ccc(F)cc2CC1CCN1CCCN(c2ccc(Cl)cn2)CC1` (stereo not drawn): the Ki in test [1] stood at 125 nM; in [2], 355 nM; in test [3], 364 nM; in test [4] it was 13 nM; in [5], 36 nM; in [6], 58 nM. Moreover, the inhibition constant (Ki) was found to be 24 nM in test [7] and 209 nM in test [8].
As to `Fc1ccc(CCCCN2CCN(c3cccc(-c4ccccc4)n3)CC2)cc1`, the Ki in test [1] turned out to be 58 nM; in [2], 2960 nM; in test [3], 641 nM; in test [4], 261 nM; in [5], 84 nM; in [6] it was 160 nM. The Ki in test [7] is above 10000 nM; in test [8], 155 nM.
Take `O=C(CCCN1CCCN(c2ccc(Cl)cn2)CC1)c1ccc(F)cc1`: the inhibitory constant (Ki) in test [1] amounted to 26 nM; in [2] it was 392 nM; in [3], 41 nM; in [4], 8.9 nM; in [5], 37 nM; in test [6], 214 nM. Further, the Ki in test [7] stood at 37 nM; in test [8], 259 nM.
In turn, `Fc1ccc(CCCCN2CCN(c3ccccn3)CC2)cc1` returned an inhibition in test [9] of 50%.

The record behind these values is ChEMBL document CHEMBL4680313 (Bioorg Med Chem, 2021).
